Test results taken from patent US20220153746A1, “NITROGEN OXIDE-DONATING PDE-5 AND/OR PDE-6 INHIBITOR COMPOUNDS, AND USES THEREOF” (ILDONG PHARMACEUTICAL CO., LTD., priority 2020, published 2022).
Where two headings read alike, the source gives them in different places.

Legend:
[1] = Metabolic stability in human liver microsomes; assay type: in vitro ADME; conditions: 37° C., 0-60 minutes
Experimental: This example illustrates the metabolic stability of selected compounds in human liver microsomes samples.
Both test and control compound solutions were prepared by diluting 5 μL of the respective stock solutions (10 mM in DMSO) containing either the test or control compound with 495 μL of acetonitrile (ACN) to give intermediate solutions with concentrations of 100 μM (99% ACN).
β-Nicotinamide adenine dinucleotide phosphate tetrasodium salt (NADPH.4Na) was purchased from BONTAC (cat. No. BT04). The NADPH working solution (10 unit/mL) was prepared by combining the appropriate amount of NADPH powder and a MgCl2 solution (10 mM) to give final concentration in the reaction system of 1 unit/mL.
The appropriate concentrations of the microsome working solutions were prepared in 100 mM potassium phosphate buffer.
Cold (4° C.) acetonitrile solution containing 200 ng/mL tolbutamide and 200 ng/mL labetalol (internal standard) was used as the stop solution.
Liver microsomes solution was diluted to 0.56 mg/mL in 100 mM phosphate buffer, and 445 μL of this solution was transferred into pre-warmed (10 minutes) “incubation” plates T60 and NCF60; the “incubation” plates T60 and NCF60 were pre-warmed for 10 minutes at 37° C. with constant shaking.
54 μL of the liver microsome solutions was transferred to the blank plate, followed by addition of 6 μL of the NAPDH cofactor solution and 180 μL of the quenching solution to the same blank plate.
5 μL of the compound working solution (100 μM concentration) was next added to into the “incubation” plates (T60 and NCF60) containing microsomes and mixed 3 times thoroughly. For the NCF60 plate, 50 μL of the buffer solution was added, mixed 3 times thoroughly, and incubated at 37° C. for 60 minutes under constant shaking.
In the “Quenching” plate at T0 (T=0 min), 180 μL of quenching solution and 6 μL of the NAPDH cofactor solution were added, and the resulting plate was chilled to prevent evaporation.
In the T60 plate, after it was thoroughly mixed, 54 μL of the mixture was immediately transferred to the “quenching” plate for the 0-minute time point, followed by addition of 44 μL of NAPDH cofactor solution to the incubation plate (T60). The resulting mixture was then incubated at 37° C. for 60 minutes under constant shaking. At time points of 5, 10, 20, 30 and 60 minutes, 180 μL of the quenching solution was added to the “quenching” plates, followed by serial transfer of 60 μL of the mixture (per time point) from the T60 plate to the “Quenching” plates.
For the NCF60 plates, 60 μL of the sample solution was transferred from the NCF60 incubation plate to the “Quenching” plate containing quenching solution at T=60 min time point. […]

[2] = Plasma protein binding assay (equilibrium dialysis); assay type: in vitro ADME; conditions: human plasma, dialysis 4 hours at 37° C.
Experimental: (§1) The dialysis device used in this example is a 96-well equilibrium dialysis plate (Cat #1006, HT Dialysis LLC, Gales Gerry, CT), and HTD 96 a/b dialysis membrane strips (Cat #1101, MWCO 12-14 kDa, HT Dialysis LLC). The dialysis device was assembled following the manufacturer's instructions.
(§2) The dialysis membrane strips were soaked in ultra-pure water at room temperature for approximately 1 hour. Each membrane strip containing 2 membranes was separated and soaked in 20:80 ethanol/water (v/v) for approximately 20 minutes, after which they were ready for used or were stored in the solution at 2-8° C. for up to a month. Prior to experiment, the membrane was rinsed and soaked for 20 minutes in ultra-pure water.
(§3) On the day of the experiment, the plasma was thawed by running under col tap water and centrifuged at 3220 rpm for 5 minutes to remove any clos. The pH value of the resulting plasma was checked. Only plasma with pH value with 7.0-8.0 could be used.
(§4) Both test and control compounds were dissolved in DMSO to achieve 10 mM stock solutions. Working solutions (400 μM) if test and control compounds were prepared by diluting 10μ of stock solutions with 240 μL of DMSO. Loading matrix solutions (2 μM) of both test and control compounds were prepared by diluting 5 μL of working solutions with 995 μL of blank matrix.
(§5) To prepare the loading matrix containing the test compound or control compounds, aliquots of either test compound working solutions or control compound working solution were spiked into blank matrix to achieve final test concentrations. The concentration of organic solvent in the final solutions were no more than 1% (normally 0.5%). The samples were mixture thoroughly before being used.
(§6) To prepare the time zero (T0) samples to be used for recovery determinations. 50 μL aliquots of loading matrix solution were transferred in triplicate to the sample collection plate. The samples were immediately matched with opposite blank buffer to obtain a final volume of 100 μL of 1:1 matrix/dialysis buffer (v/v) in each well. 500 μL of stop solution were added to these T0 samples. They were then stored at 2-8° C. pending further processes along with other post-dialysis samples.
(§7) To load the dialysis device, an aliquot of 150 μL of the loading matrix was transferred to the donor side of each dialysis well in triplicate, and 150 μL of the dialysis buffer was loaded to the received side of the well. The dialysis was placed in humidified incubator at 37° C. with 5% CO2 on a shaking platform that rated slowly (about 100 rpm) for 4 hours.
(§8) At the end of the dialysis, aliquots of 50 μL of samples were taken from both the buffer side and the matrix side of the dialysis deice. These samples were transferred into new 96-well plates (the sample collection plates). Each sample was mixed with an equal volume of opposite blank matrix (buffer or matrix) to reach a final volume of 100 μL of 1:1 matrix/dialysis buffer (v/v) in each well. All samples were further processed by adding 500 μL of stop solution containing internal standards. The mixture was vortexed and centrifuged at 4000 rpm for about 20 minutes. An aliquot of 100 μL of supernatant of all the samples were then removed for LC-MS/MS analysis.
(§9) The single blank samples were prepared by transferring 50 μL of blank matrix to a 96 well plate and adding 50 μL of blank PBS buffer to each well. The blank plasma must match the species of plasma used in the plasma side of the well. Then the matrix-matched samples were further processed by adding 500 μL of stop solution containing internal standards, following the same sample processing method as the dialysis samples.

human plasma proteins = assay: as above; assay type: in vitro ADME; conditions: 2 μM, dialysis 4 hours at 37° C.
Experimental: as §1, §2, §3, §4, §5, §6, §7, §8, §9

human PDE-5A1 = human PDE-5A1 (Homo sapiens, UniProt O76074); assay: Human PDE-5A1 inhibition assay (fluorescence polarization, FAM-cGMP); assay type: biochemical
human PDE-6C = human PDE-6C (Homo sapiens, UniProt P51160); assay: Human PDE-6C inhibition assay (fluorescence polarization, FAM-cGMP); assay type: biochemical
human PDE-6C, sequence (P51160 whole entry): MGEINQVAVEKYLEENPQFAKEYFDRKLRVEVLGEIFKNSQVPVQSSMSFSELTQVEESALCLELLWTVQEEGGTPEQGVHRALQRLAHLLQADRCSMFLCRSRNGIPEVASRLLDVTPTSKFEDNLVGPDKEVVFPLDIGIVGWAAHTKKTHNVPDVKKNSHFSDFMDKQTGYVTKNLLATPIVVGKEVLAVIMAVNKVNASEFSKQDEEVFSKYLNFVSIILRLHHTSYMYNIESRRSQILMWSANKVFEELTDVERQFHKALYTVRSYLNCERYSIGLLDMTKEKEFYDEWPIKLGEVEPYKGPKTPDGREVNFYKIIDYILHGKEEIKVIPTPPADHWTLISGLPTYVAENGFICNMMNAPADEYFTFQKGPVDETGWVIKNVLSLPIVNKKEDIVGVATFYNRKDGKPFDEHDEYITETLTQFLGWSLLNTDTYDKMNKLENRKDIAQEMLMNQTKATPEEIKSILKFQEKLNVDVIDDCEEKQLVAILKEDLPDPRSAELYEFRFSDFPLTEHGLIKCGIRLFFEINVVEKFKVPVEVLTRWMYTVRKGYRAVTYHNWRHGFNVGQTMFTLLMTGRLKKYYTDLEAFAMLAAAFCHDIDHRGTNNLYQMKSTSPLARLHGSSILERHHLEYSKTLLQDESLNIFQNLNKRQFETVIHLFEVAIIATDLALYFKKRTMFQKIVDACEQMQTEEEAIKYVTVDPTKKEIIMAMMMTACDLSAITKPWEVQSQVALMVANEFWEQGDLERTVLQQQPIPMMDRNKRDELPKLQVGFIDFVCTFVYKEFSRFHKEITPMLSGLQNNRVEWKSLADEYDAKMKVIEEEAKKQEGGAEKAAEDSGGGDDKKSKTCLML

| SMILES | CLint scaled at 1 µM [1] [mL/min/kg] | fraction unbound at 4 h, 2 µM [2] | % Bound (human plasma proteins) [%] | IC50 (human PDE-5A1; read-out: IC50 (μM) PDE5A1) [µM] | IC50 (human PDE-6C; read-out: IC50 (μM) PDE6C) [µM] | IC50 (human PDE-5A1) [µM] | IC50 (human PDE-6C) [µM] |
| --- | --- | --- | --- | --- | --- | --- | --- |
| CCCc1nn(C)c2c(=O)[nH]c(-c3cc(S(=O)(=O)N4CC(NCCCO)C4)ccc3OCC)nc12 [Compound 10, 5-(2-ethoxy-5-((3-((3-hydroxypropyl)amino)azetidin-1-yl)sulfonyl)phenyl)-1-methy-3-propyl-1,6-dihydro-7H-pyrazolo[4,3-d]pyrimidin-7-one] | 55 | 0.138 | 86.19 | – | – | – | – |
| CCCc1nn(C)c2c(=O)[nH]c(-c3cc(S(=O)(=O)N4CC(NCCCO[N+](=O)[O-])C4)ccc3OCC)nc12 [Compound 22, 3-((1-((4-ethoxy-3-(1-methyl-7-oxo-3-propyl-6,7-dihydro-1H-pyrazolo[4,3-d]pyrimidin-5-yl)phenyl)sulfonyl)azetidin-3-yl)amino)propyl nitrate] | 358 | 0.0247 | 97.53 | < 0.01 | < 0.01 | – | – |
| CCCc1nn(C)c2c(=O)[nH]c(-c3cc(S(=O)(=O)N4CC(CCCOC(=O)CCCO[N+](=O)[O-])C4)ccc3OCC)nc12 [Compound 72, 3-(1-((4-ethoxy-3-(1-methyl-7-oxo-3-propyl-6,7-dihydro-1H-pyrazolo[4,3-d]pyrimidin-5-yl)phenyl)sulfonyl)azetidin-3-yl)propyl 4-(nitrooxy)butanoate] | – | – | – | < 0.01 | < 0.01 | – | – |
| CCCc1nn(C)c2c(=O)[nH]c(-c3cc(S(=O)(=O)N4CC(CCCOC(=O)CCC(CO[N+](=O)[O-])O[N+](=O)[O-])C4)ccc3OCC)nc12 (stereo not drawn) [Compound 73, 3-(1-((4-ethoxy-3-(1-methyl-7-oxo-3-propyl-6,7-dihydro-1H-pyrazolo[4,3-d]pyrimidin-5-yl)phenyl)sulfonyl)azetidin-3-yl)propyl 4,5-bis(nitrooxy)pentanoate] | – | – | – | – | – | < 0.01 | < 0.01 |
